In publication PMC12270203, “The ExoGAN generative AI framework enables extracellular vesicle-based immunotherapy” (Research Square, 2025):
Where no end group is shown, it is not given here.

How the values were obtained:
[1] = tested on: surface HLA*A02:01 on engineered K562 cells (K+); assay: Flow cytometry peptide exchange / antigen presentation assay on K562 cells; format: cell-based, human; conditions: 1 uM AF555 N-terminal tagged peptide, 5 uM GL dipeptide, 1 uM brefeldin A, 3 hours, N=4
Method: (K+) that only expresses the HLA*A02:01 allele (see Methods).
To validate ExoGAN at the cellular level, we used engineered K562[53] cells (K+) that only express surface HLA*A02:01. Native K562 cells (K−) and K+ cells were grown in complete 1640-RPMI (Gibco) media and harvested at 1 x 10^6 cells. Based on the method reported by Saini et al.[70], cells were incubated with 1 uM AF555 N-terminal tagged peptides with or without the 5 uM GL dipeptide in 1 uM brefeldin A for 3 hours in a 96 well plate. Total volume was 200 uL per well. Cells were washed 3x and subjected to flow cytometry for HLA*A02:01 affinity.

[2] = tested on: DMF5 TCR on J+ cells; assay: J+ cell immunostimulation by peptide-engineered APC-EVs; format: cell-based, human; conditions: 2x10^9 particles, 24 hours
Method: We designed EVs derived from K+ cells with ExoGAN-designed peptides to precisely activate J+ cells expressing the melanoma TCR, DMF5.
100 uL of the isolate solution was combined with a 100 uL mastermix solution containing 5 uM GL dipeptide and 1 uM peptide. The 200 uL solution was incubated on a revolver at 4°c for 1.5 hours, following purification by ultrafiltration using a 10k MWCO column into a 30 uL solution. 10 uL was used for zeta potential, nano flow cytometry to assess peptides binding onto HLA-A*02:01 and 10 uL was used to assess CD69 expression and IL-2 secretion from J+ cells. To measure J+ functionality, 2x10^5 J+ cells in 190 uL were added to a 96 round bottom well plate, followed by adding the 10 uL isolate solution. 24 hours later, CD69 was evaluated with flow cytometry

[3] = target: HLA-A*02:01 on engineered K562 cells (K+) and on extracellular vesicles isolated from them (human); assay: nano flow cytometry on extracellular vesicles; EVs isolated from K+ cells incubated with 1 uM AF647-tagged peptide and 5 uM GL dipeptide, ultrafiltered (10k MWCO), stained with an AF488 HLA-A*02:01 antibody; NanoFCM

FLIDLAFLI [IEDB, reference compound] was tested, and the “peptide presentation on K+ cells (AF555 median fluorescent intensity)” value [1] was “most potent peptide binders”.

FLIHSRNHD [Exo_1] was tested, and the “CD69 median fluorescent intensity of J+ cells” value ([2]; 2x10^5 J+ cells, flow cytometry, N=4) was “outperformed MART-1” and the “IL-2 secretion of J+ cells” value ([2]; J+ cells, ELISA, Dunnett's test corrected one-way ANOVA, p <0.05) was “significantly more”.

CLICMDMVV [Exo_4] was tested, and the “peptide presentation on K+ cells (AF555 median fluorescent intensity)” value [1] was “most potent peptide binders”.

FLIHSRNHD (also: AF647-tagged, position not given here) [Exo_1, AF647-tagged] gave a percent peptide binding [3] of 100%.

HHMNMSMSK (also: AF647-tagged, position not given here) [Exo_2, AF647-tagged] gave a percent peptide binding [3] of 100%.

Work on AAICTLLYD (also: AF647-tagged, position not given here) [Exo_3, AF647-tagged] yielded a percent peptide binding [3] of 100%.

For CLICMDMVV (cysteine pairing not given here; also: AF647-tagged, position not given here) [Exo_4, AF647-tagged], the percent peptide binding [3] was 100%.
